Results published in patent EP3381897A1, “DERIVATIVES OF THE DISODIUM 2,2'-{CARBONYLBIS[IMINO-3,1-PHENYLENECARBONYLIMINO(1-METHYL-1H-PYRROLE-4,2-DIYL)CARBONYLIMINO]}DINAPHTHALENE-1,5-DISULFONATE SALT AND RELATED COMPOUNDS AS HEPARANASE INHIBITORS FOR THE TREATMENT OF CANCER” (Leadiant Biosciences SA, priority 2017, dated 2018).
Where a name gives a salt, the structure may show the parent alone.

Assays:
[1] = test system: HT1080 (human fibrosarcoma); experiment: Cell adhesion assay on matrigel coated wells; format: cell-based; details: percent of adhesion with respect to the control (100%)
Method: Cell surface, non-integrin molecules such as heparan sulfate proteoglycans (HSPGs) may be involved in the regulation of early adhesive stages of cell-ECM interactions. A cell adhesion assay has been employed to determine if the newly designed heparanase inhibitors were able to interfere with adhesion properties of cancer cells. […] Then cells were collected, washed in complete medium, and added to matrigel coated wells in triplicate, at previously identified optimal seeding density, and incubated at 37 °C in complete medium for times ranging from 15 minutes to 4h, according to the cell line. […] Optical density was measured at 560 nm by Victor 3 (Perkin-Elmer) plate analyzer. Each experiment was repeated three times. Table 4. […] In Invasion assay, data were expressed as the percent invasion (range) with respect to cell migration through uncoated insert membrane.

FGF-1 = experiment: Real-Time quantitative PCR of mRNA gene expression in HT1080 cells; format: cell-based, human; details: 2.5 uM, 24 h
HPSE-1 = details: 2.5µM; HT1080 cells
Method: To evaluate the effect of heparanase inhibitors on the tumor transcription of genes encoding for proangiogenic factors, such as FGF1/2, VEGF, MMP-9, HSPE-1, the relative mRNA levels were analyzed by quantitative Real-Time Quantitative PCR. To perform the assay, HT1080 (human fibrosarcoma) cells were cultured in complete medium containing 10%FCS (fetal calf serum). Cells were plated in 24-well plates and treated at fixed concentration (i.e., highest non-toxic concentration) of test compounds. After 24 h, cells were detached, collected and total RNA extracted by RNeasy Mini Kit (QIAGEN). Following reverse transcription step, FGF1/2, VEGF, MMP-9, HSPE-1 mRNA levels, were quantified by qPCR using the advanced Universal SYBR Green Supermix (Bio Rad) and ABI PRISM 7900HT Thermal Cycler System (Perkin Elmer), according to the manufacturer's instructions. […] Relative levels of RNA were calculated using the ddCt method. Standard curve and sample data were run in duplicate.

FGF-2 = experiment: Real-Time quantitative PCR of mRNA gene expression in HT1080 cells; format: cell-based, human; details: 2.5 uM, 24 h
VEGF = experiment: as above; format: cell-based, human; details: 2.5 uM, 24 h
MMP-9 = experiment: as above; format: cell-based, human; details: 2.5 uM, 24 h
[2] = test system: HT1080 (human fibrosarcoma); experiment: Matrigel cell invasion assay; format: cell-based; details: HT-1080
Method: Heparanase inhibitors were then evaluated for their activity on the invasive potential of HT1080 (human fibrosarcoma) human cell lines, using the Matrigel cell invasion assay which allows to assess the cell invasion ability of malignant and normal cells. Invasion assay was performed using BioCoat cell culture inserts (BioCoat 8.0µm PET Membrane 24 Well Permeable Supports, Corning). Filters were coated with 100 µl of 300 µg/ml Matrigel dissolved in coating buffer (0.01 M Tris pH 8.0, 0.7% NaCl) (Becton-Dickinson Sciences). DMEM (Dulbecco's Modified Eagle's Medium) containing 5% FBS was added to the lower chambers. Cells were pre-treated with heparanase inhibitors for 24 h, detached and added to the upper chambers in media containing the inhibitors. Cells were allowed to invade for 24 h at 37°C in a CO2 incubator and then unmigrated cells were removed from the upper chamber with a cotton swab. […] Test compounds were analyzed at fixed concentration for several fields, in duplicates. Activity of test compounds was compared to the reference compound. Activity of most interesting compound was confirmed in a second cell invasion assay. Data were expressed as the percent invasion with respect to cell migration through uncoated insert membrane. (Table 4) Table 4. […] In Invasion assay, data were expressed as the percent invasion (range) with respect to cell migration through uncoated insert membrane.

[3] = test system: U87MG (human glioblastoma astrocytoma); experiment: SRB Cell Cytotoxicity Assay; format: cell-based
Method: (§1) SRB Cell Cytotoxicity Assay is an assay based upon the quantitative staining of cellular proteins by sulforhodamine B (SRB). This assay can be used for high-throughput drug screening ([…], Nature Protocol. 2006, 1, 112). Sulforhodamine B is an anionic aminoxanthene dye that forms an electrostatic complex with the basic amino acid residues of proteins under moderately acid conditions, which provides a sensitive linear response. […] Inhibition of cell proliferation was then measured by the classical colorimetric SRB Cell Cytotoxicity assay. Absorbance was measured by spectrophotometer at a wavelength of 510 nm and cell proliferation was determined as percent with respect to control cells (cells treated with the vehicle alone). EC50 values were then determined by GraphPad Prism.

[4] = test system: HT1080 (human fibrosarcoma); experiment: SRB Cell Cytotoxicity Assay; format: cell-based
Method: as §1

[5] = test system: U2OS (human osteosarcoma); experiment: SRB Cell Cytotoxicity Assay; format: cell-based
Method: as §1

| SMILES | Adhesion Assay (%) HT1080; 2.5 µM ([1]; 2.5 µM) | Gene Expression (% mRNA vs. control) FGF-1 (FGF-1) | silencing of heparanase gene (in words) (HPSE-1) | Gene Expression (% mRNA vs. control) FGF-2 (FGF-2) | Gene Expression (% mRNA vs. control) VEGF (VEGF) | Gene Expression (% mRNA vs. control) MMP-9 (MMP-9) | further results |
| --- | --- | --- | --- | --- | --- | --- | --- |
| Cn1cc(NC(=O)c2cccc(NC(=O)Nc3cccc(C(=O)Nc4cc(C(=O)Nc5ccc6c(S(=O)(=O)O)cccc6c5S(=O)(=O)O)n(C)c4)c3)c2)cc1C(=O)Nc1ccc2c(S(=O)(=O)[O-])cccc2c1S(=O)(=O)[O-].[Na+].[Na+] [Example 1, Disodium 2,2'-{carbonylbis[imino-3,1-phenylenecarbonylimino(1-methyl-1H-pyrrole-4,2-diyl)carbonylimino]}dinaphthalene-1,5-disulfonate salt] | ∼ 86% |  |  |  |  |  |  |
| O=C(Nc1cccc(C(=O)Nc2cc(C(=O)Nc3ccc4c(S(=O)(=O)[O-])cccc4c3S(=O)(=O)[O-])n(C3CC3)c2)c1)Nc1cccc(C(=O)Nc2cc(C(=O)Nc3ccc4c(S(=O)(=O)O)cccc4c3S(=O)(=O)O)n(C3CC3)c2)c1.[Na+].[Na+] [Example 2, Disodium 2,2'-{carbonylbis[imino-3,1-phenylenecarbonylimino(1-cyclopropyl-1H-pyrrole-4,2-diyl)carbonylimino]}dinaphthalene-1,5-disulfonate salt] | ∼ 88% |  |  |  |  |  |  |
| Cn1cc(NC(=O)Nc2cc(C(=O)Nc3cccc(C(=O)Nc4ccc5c(S(=O)(=O)O)cccc5c4S(=O)(=O)O)c3)n(C)c2)cc1C(=O)Nc1cccc(C(=O)Nc2ccc3c(S(=O)(=O)O)cccc3c2S(=O)(=O)O)c1 [Example 6, Disodium 2,2'-{carbonylbis[imino(1-methyl-1H-pyrrole-4,2-diyl)carbonylimino-3,1-phenylenecarbonylimino]}dinaphthalene-1,5-disulfonate salt] | ∼ 86% | ∼ 87% | almost complete silencing of heparanase gene | ∼ 98% | ∼ 85% | ∼ 80% |  |
| Cn1cc(NC(=O)Nc2cc(C(=O)Nc3cc(C(=O)Nc4ccc5c(S(=O)(=O)O)cccc5c4S(=O)(=O)O)n(C)c3)n(C)c2)cc1C(=O)Nc1cc(C(=O)Nc2ccc3c(S(=O)(=O)O)cccc3c2S(=O)(=O)O)n(C)c1 [FCE27266, disodium 2,2'-{carbonylbis[imino(1-methyl-1H-pyrrole-4,2-diyl)carbonylimino(1-methyl-1H-pyrrole-4,2-diyl)carbonylimino]}dinaphthalene-1,5-disulfonate salt] | ∼ 93% | ∼ 44% | almost complete silencing of heparanase gene | ∼ 86% | ∼ 100% | ∼ 100% |  |
| Cc1ccc(C(=O)Nc2ccc(S(=O)(=O)O)c3cc(S(=O)(=O)O)cc(S(=O)(=O)O)c23)cc1NC(=O)c1cccc(NC(=O)Nc2cccc(C(=O)Nc3cc(C(=O)Nc4ccc(S(=O)(=O)O)c5cc(S(=O)(=O)O)cc(S(=O)(=O)O)c45)ccc3C)c2)c1 [Suramin, suramin] |  |  |  |  |  |  | Adhesion Assay (%) HT1080; 2.5 µM ([1]; Reference compound (Suramin) at 10 µM according to b319): ∼ 100%; inhibition at 2.5 µM [2]: < 50%; IC50 ([3]; Homo sapiens, U-87 MG, 72h treatment, read-out: Concentration of test compounds at which the cell growth is inhibited by 50 % U87MG): > 2500 nM; interference with the cell growth (in words) ([3]; U87MG, tested up to 2.5 µM): do not interfere with the cell growth; interference with the cell growth (in words) ([4]; HT1080, tested up to 2.5 µM): do not interfere with the cell growth; IC50 ([4]; Homo sapiens, HT-1080, 72h treatment, read-out: Concentration of test compounds at which the cell growth is inhibited by 50 % HT1080): > 2500 nM; IC50 ([5]; Homo sapiens, 72h treatment, read-out: Concentration of test compounds at which the cell growth is inhibited by 50 % U2OS): > 2500 nM; interference with the cell growth (in words) ([5]; tested up to 2.5 µM): do not interfere with the cell growth |
